Results published in US9079859B2, “Synthetic lethal targeting of glucose transport” (AUCKLAND UNISERVICES LIMITED, priority 2011, dated 2015).
Where two headings read alike, the source gives them in different places.

Legend:
RCC4 and RCC4/VHL cells = type: cell-based
Description: Cell Viability Assays. For 2,3-bis[2-methoxy-4-nitro-5-sulfophenyl]-2H-tetrazolium-5-carboxanilide (XTT) assays, five thousand cells were plated in 96-well plates. The next day, vehicle (DMSO) or drug was added by serial dilution. Four days later, media were aspirated, XTT solution (0.3 mg/ml of XTT (Sigma), […] N-methyl dibenxopyrazine methyl sulfate (Sigma) in phenol red-free media) was added, and the plates were incubated at 37° C. for 1-2 hours. Metabolism of XTT was quantified by measuring the absorbance at 450 nm. IC50s were calculated using linear interpolation. For clonogenic survival assays, three hundred cells were plated per 60 mm tissue culture dish. The cells were allowed to attach overnight and then treated with vehicle or drug for 14 days. Colonies were fixed and stained with crystal violet (0.1% crystal violet in 95% ethanol). All conditions were measured in triplicate and each experiment was done in duplicate or triplicate. To determine necrosis, cells were treated with drug for a given time point. Media and cells were collected, centrifugated, and resuspended in 0.4% trypan blue (Invitrogen). Live and dead cells were counted on a hematocytometer.

786-O xenograft tumors = experiment: FDG-PET imaging of glucose uptake in renal carcinoma xenograft; type: in vivo, mice; settings: three daily doses (STF-35 11.6 mg/kg i.p.)
Description: In Vivo Studies. All experiments were approved by Stanford's Administrative Panel on Laboratory Animal Care (APLAC) and in accordance with both institutional and national guidelines. Five million cells were implanted subcutaneously into the flanks of nude mice (4-6 weeks old)(Charles River Laboratories). Tumors were measured with calipers. Volume was calculated by the following formula: width^2×0.5 length. Once tumors reached an average size of >20 mm^3, mice were randomized into vehicle (DMSO diluted in 16% cremaphor EL/PBS) or treated groups. Mice were treated with STF-35 (11.6 mg/kg for the first 3 days, followed by 7.8 mg/kg for the 7-9 days). Five-micron sections were cut for immunohistochemistry. Sections were counterstained with hematoxylin and eosin. For 2-[^18F]-fluoro-2-deoxy-glucose-positron emission tomography imaging, mice bearing tumors were fasted overnight. The next day, the mice were anesthetized with 2% isoflurane and injected intraperitoneally with 250 μCi of FDG. Mice were imaged for 10 minutes at one hour post-injection, using a Rodent R4 microPET system (Concorde Microsystems). Data were reconstructed into three-dimensional volumes using an ordered subset expectation maximization algorithm and were calibrated into units of percent injected dose per gram.

RCC4 cells = experiment: Glucose uptake (2-deoxy-D-[3H]glucose), RCC4; type: cell-based
Description: Glucose Uptake. One hundred thousand cells were plated per well in a six-well plate. The next day, cells were treated with the indicated concentration of drug and incubated for the indicated time. Cells were then washed twice with phosphate-buffered saline, incubated in low-glucose medium for 30 minutes, and 3H-2-deoxyglucose (0.5 μCi) was added in 1 ml of glucose-free media for an additional hour. Cells were washed twice in PBS and lysed (0.2 N NaOH and 0.2% sodium dodecyl sulfate). Glucose uptake was quantified with a scintillation counter.

LC3 = settings: leading to cell death; cited from earlier work
[1] = short-term (XTT) and/or long-term (clonogenic) survival assays

In the case of CC(=O)CC(=O)Nc1ccc(Cl)c(C(F)(F)F)c1 [fasentin], the “cytotoxicity to RCC4 and RCC4/VHL cells” value (RCC4 and RCC4/VHL cells; [1]) is reported as “relatively non-toxic”.

In the case of O=C(O)c1nn(Cc2ccc(Cl)cc2Cl)c2ccccc12 [lonidamine], the “cytotoxicity to RCC4 and RCC4/VHL cells” value (RCC4 and RCC4/VHL cells) is reported as “toxic to both”.

With O=C(O)C(=O)CBr [bromopyruvate] the “cytotoxicity to RCC4 and RCC4/VHL cells” value (RCC4 and RCC4/VHL cells; [1]) was “toxic to both”.

For Clc1ccccc1C(c1ccccc1)(c1ccccc1)n1ccnc1 [clotrimazole], the “cytotoxicity to RCC4 and RCC4/VHL cells” value (RCC4 and RCC4/VHL cells) was “toxic to both”.

With O=CC[C@@H](O)[C@H](O)[C@H](O)CO [2-DG, 2-deoxy-D-glucose] the “cytotoxicity to RCC4 and RCC4/VHL cells” value (RCC4 and RCC4/VHL cells) was “not cytotoxic”.

For Cc1cccc(Nc2nc(-c3ccncc3)cs2)c1 [STF-62247], the “glucose (FDG) uptake within the tumors by FDG-PET” value (786-O xenograft tumors) is given as “did not have a decrease”, the “glucose uptake in VHL-defective cells, analogs and control cytotoxins” value (RCC4 cells) is given as “did not decrease” and the “autophagy in VHL-deficient RCCs” value (LC3) is given as “induce autophagy”.

With O=C(CCc1ccc(O)cc1)c1c(O)cc(O)cc1O [phloretin] the “cytotoxicity to RCC4 and RCC4/VHL cells” value (RCC4 and RCC4/VHL cells) was “toxic to both”.
